Test results from US9764046B2, “Labeling composition for intraocular tissue, labeling method of intraocular tissue, and screening method” (CANON KABUSHIKI KAISHA, priority 2008, dated 2017).

Columns and labels:
[1] = test system: intraocular tissue (retinal tissue incl. photoreceptor cell layer, vitreous body) of Zebrafish 7-day-old embryo; test: Staining of intraocular tissue of Zebrafish fry by exposure to staining liquid, ocular tissue section observed by confocal microscope; type: in vivo; conditions: Zebrafish 7 dpf fry, 1 μg/mL, 1 hour exposure, fixed ocular section
[2] = test system: photoreceptor cell layer in tissue section of the Zebrafish eyeball; test: Stained slide of frozen tissue section of Zebrafish eyeball, co-staining with anti-Zpr-1 or anti-Zpr-3 antibody
Text: After an eyeball of a fry of Zebrafish 7-day-old embryo (7 dpf) was immobilized with a PBS solution of 4% paraformaldehyde (PFA), the solution was replaced by a PBS solution of 30% sucrose, and the eyeball was embedded in an OCT compound (product of Tissue-Tek Co.) and frozen with liquid nitrogen. The frozen sample was sliced into a 7-1 μm section by Cryostat (Tissue•Tek Cryo 3, manufactured by Sakura Finetek Japan Co., Ltd.) and extended on a MAS-coated slide glass (product of […] GLASS IND., LTD) to obtain a tissue section slide of the Zebrafish eyeball. The slide glass was treated with a blocking solution (Blocking One, product of Nakarai Co.) for 30 minutes at room temperature, and an anti-Zpr-1 antibody (which stains red and green cone cells) diluted with PBS was mounted as a primary antibody on the slide glass and treated for 12 hours at 4° C. The slide glass was then washed 3 times with PBST for 10 minutes, and a secondary antibody (Alexa 488-anti-mouse IgG antibody) and 1 μg/mL of Compound 5 were diluted with PBS and mounted on the slide glass for 1 hour at room temperature. The slide glass was washed 3 times with PBST for 10 minutes, Fluoromount G (product of Southem Biotechnology Co.) was mounted thereon, and a cover glass was placed thereon. The thus-obtained stained slide of the tissue section of the Zebrafish eye ball was observed through a confocal microscope.
A stained slide of a tissue section of a Zebrafish eye ball was prepared according to the same process as in Example 120 except that the primary antibody used in Example 120 was changed to an anti-Zpr-3 antibody (which stains rod cells), and observed through a confocal microscope.

[3] = Excitation and fluorescence wavelengths by fluorescence spectrometer FL4500; type: physicochemical; conditions: aqueous solution: 10 mg/mL DMSO solution diluted to 1/500 with purified water (Examples 1 to 94); in nm (unit assumed)
[4] = test system: fundus (retina) of Zebrafish fry; test: In vivo intraocular observation of the fundus of living Zebrafish fry by confocal microscope; conditions: 1 μg/mL, 1 hour exposure;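 note: +++ photoreceptor and inner retinal layers stained ++ mainly photoreceptor layer − none seen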
Method: In an arbitrary well of a 24-well multiplate, were put 1 mL of Staining Liquid 2 and a fry of Zebrafish, and the plate was left to stand for 1 hour. A process of removing Staining Liquid 2 in the well and replacing it by 1 mL of distilled water was then performed 3 times.
The fry was then put in a 0.7% agarose solution and placed on a slide glass to observe the fundus of the fry through a confocal microscope.

retina of B10 mouse = test: Staining of mouse intraocular tissue after administration to the abdominal cavity; type: in vivo; conditions: 3-month-old B10 mouse, 0.2 mL of 10 mg/mL supernatant to abdominal cavity, eyeball taken after 1 hour
Method: Staining compound 81 was added to an equimolar amount of a NaOH solution so as to give a concentration of 10 mg/mL, and the resultant mixture was centrifuged for 5 minutes at 14 krpm to obtain a supernatant. To an abdominal cavity of a 3-month-old B10 mouse, was administered 0.2 mL of this supernatant at one time. After 1 hour, the thus-treated animal was sacrificed under anesthesia by diethyl ether, and an eyeball thereof was taken out. The eyeball taken was embedded in an OCT compound and frozen in isopentane chilled with liquid nitrogen. This eyeball was sliced into a thickness of about 5 μm in a cryostat chilled to −20° C., and this slice was placed on a slide glass and dried to prepare a section of an ocular tissue. The thus-prepared ocular tissue section was observed through a confocal microscope (Pascal Exciter, manufactured by Zeiss Co.).

SMILES | Staining ability [1] | Overlap of stained images with anti-Zpr-1 antibody (red and green cone cells) in the photoreceptor cell layer ([2]; Example 120, 1 μg/mL on frozen section) | Overlap of stained images with anti-Zpr-3 antibody (rod cells) in the photoreceptor cell layer ([2]; Example 121, 1 μg/mL on frozen section) | Selectivity of staining within the photoreceptor cell layer ([2]; Examples 120 and 121) | Staining of photoreceptor cell layer and of red and green cone cells ([2]; conclusion from Example 120) | Cell types stained in the photoreceptor cell layer ([2]; conclusion from Example 121) | λem (fluorescence wavelength) [3] | λex (excitation wavelength) [3] | Result of observation (staining ability, in vivo fundus) [4] | Staining ability to the retina (retina of B10 mouse)
CCN(CC)c1ccc2cc3c(oc2c1)c(C#N)c(=N)n1c2ccccc2nc31 [Compound 5] | +++ | did not overlap | partially overlapped | selectively stains a part of the cell types in the photoreceptor cell layer or of the cell bodies existing in the photoreceptor cell layer | has staining ability to the photoreceptor cell layer but does not stain the red and green cone cells in the photoreceptor cell layer | has stained the rod cells and at least one kind of cell type of blue or ultraviolet cone cells | 577 | 556 | +++ | –
CCN1c2ccc(/C=C3/SC(=S)N(CCC(=O)O)C3=O)cc2C2CCCC21 (centres unmarked) [Compound 81] | ++ | – | – | – | – | – | 604 | 576 | +++ | has staining ability to the retina
